Results taken from PMC7852560 (Neuropsychopharmacology, 2020).
Where “and” joins values, the source holds several entries; their conditions need not be identical. Identical values can stand only once.

Assays:
[1] = target: T1, 5HT1A (Homo sapiens, UniProt P08908); test: SafetyScreen44 panel: 5HT1A; format: binding; settings: 1 µM
T1 construct: Eurofins Cerep
T1 sequence (P08908 1-422): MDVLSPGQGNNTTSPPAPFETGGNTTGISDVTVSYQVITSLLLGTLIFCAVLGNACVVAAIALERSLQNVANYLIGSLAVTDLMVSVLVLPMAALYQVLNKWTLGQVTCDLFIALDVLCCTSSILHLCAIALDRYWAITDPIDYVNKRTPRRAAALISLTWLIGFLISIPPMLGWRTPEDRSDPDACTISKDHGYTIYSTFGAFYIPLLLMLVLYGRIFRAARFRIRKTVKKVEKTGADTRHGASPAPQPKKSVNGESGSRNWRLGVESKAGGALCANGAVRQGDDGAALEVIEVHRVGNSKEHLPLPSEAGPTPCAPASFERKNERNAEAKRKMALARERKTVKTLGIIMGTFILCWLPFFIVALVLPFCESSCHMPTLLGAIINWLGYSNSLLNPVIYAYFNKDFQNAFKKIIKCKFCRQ
Procedure: (§1) The screen assesses the selectivity of the compound on a diverse panel of targets that includes GPCRs, drug transporters, ion channels, nuclear receptors, kinases, and other non-kinase enzymes. The screen employs radioligand binding or enzyme assays for these 44 targets.
(§2) For receptor assays, binding was calculated as percent inhibition of the binding of a radioactively labeled ligand specific for each target. For enzyme assays, the inhibition effect was calculated as percent inhibition of control enzyme activity. Tests were performed in duplicate, and results are averages of those two tests. See https://www.eurofinsdiscoveryservices.com.

[2] = target: Dopamine D2 (Homo sapiens, UniProt P14416); test: SafetyScreen44 panel: Dopamine D2; format: binding; settings: 1 µM
Dopamine D2, sequence (P14416 other isoform, or with tags, fused parts or gaps): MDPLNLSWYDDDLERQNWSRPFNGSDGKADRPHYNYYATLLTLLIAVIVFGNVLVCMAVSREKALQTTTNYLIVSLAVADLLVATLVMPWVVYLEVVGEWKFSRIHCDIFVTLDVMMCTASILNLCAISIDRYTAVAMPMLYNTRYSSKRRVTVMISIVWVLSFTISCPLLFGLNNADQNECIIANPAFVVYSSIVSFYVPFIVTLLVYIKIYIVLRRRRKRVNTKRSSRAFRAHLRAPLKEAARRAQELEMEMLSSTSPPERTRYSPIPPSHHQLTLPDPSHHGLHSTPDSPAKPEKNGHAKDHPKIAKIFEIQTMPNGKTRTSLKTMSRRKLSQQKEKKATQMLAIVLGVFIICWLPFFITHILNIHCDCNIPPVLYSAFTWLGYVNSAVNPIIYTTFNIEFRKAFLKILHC
Procedure: as §1, §2

[3] = in vitro; format: in vitro ADME, rat; settings: pH 7.4
Procedure: (§3) Microsomal stability assays were conducted by Cyprotex Ltd (Macclesfield, UK).
(§4) The study of drug stability in the presence of liver microsomes is accepted as a valuable model for permitting rapid prediction of in vivo drug stability (see Kerns & Di, 2008). Microsomal stability studies were performed by Cyprotex Ltd (Macclesfield, UK). […] Microsomes (final protein concentration 0.5 mg/mL), 0.1 M phosphate buffer pH 7.4, and test compound (final concentration 3 μM; diluted from 10 mM stock solution to give a final DMSO concentration of 0.25%) were incubated at 37°C prior to the addition of NADPH (final concentration 1 mM) to initiate the reaction with a final incubation volume of 25 µL. A control incubation was included for each compound tested, where 0.1 M phosphate buffer pH 7.4 was added instead of NADPH. The control compounds testosterone and 7-hydroxycoumarin were included in each experiment and all incubations were performed singularly for each compound. […] Following protein precipitation, the sample supernatants were combined in cassettes of up to 4 compounds and analyzed using standard LC-MS/MS conditions. From a plot of the natural logarithm of the peak area ratio (i.e., the ratio of compound peak area: internal standard peak area) against time, the gradient of the line was determined. Subsequently, half-life and intrinsic clearance were calculated using the equations below: […]

[4] = tested on: Male Sprague Dawley rats; test: Conditioned avoidance response (CAR); format: in vivo; settings: rat, in vivo
Procedure: (§5) Male Sprague Dawley rats (PD>63) were trained on a CAR protocol and responding following drug exposure was determined. […] Animals were trained to learn a house light (CS) as predictive of an avoidable 0.6mA scrambled foot shock (US). Each session consisted of 50 trials and animals avoided >70% of trials on the final acquisition session were tested for CAR during vehicle baseline, drug exposure, and re-emergence. In addition to CAR testing, both temperature and catalepsy were recorded in these animals (measure of potential CB1R agonism). Temperature: recorded on first day of drug exposure, prior to injection and 60-90-min. following drug exposure.

[5] = tested on: Male Sprague Dawley rats; settings: 10 mg/kg i.p.
Procedure: as §5

[6] = target: CB1R (Homo sapiens, UniProt P21554); test: cell-based; format: cell-based
CB1R, sequence (P21554 whole entry): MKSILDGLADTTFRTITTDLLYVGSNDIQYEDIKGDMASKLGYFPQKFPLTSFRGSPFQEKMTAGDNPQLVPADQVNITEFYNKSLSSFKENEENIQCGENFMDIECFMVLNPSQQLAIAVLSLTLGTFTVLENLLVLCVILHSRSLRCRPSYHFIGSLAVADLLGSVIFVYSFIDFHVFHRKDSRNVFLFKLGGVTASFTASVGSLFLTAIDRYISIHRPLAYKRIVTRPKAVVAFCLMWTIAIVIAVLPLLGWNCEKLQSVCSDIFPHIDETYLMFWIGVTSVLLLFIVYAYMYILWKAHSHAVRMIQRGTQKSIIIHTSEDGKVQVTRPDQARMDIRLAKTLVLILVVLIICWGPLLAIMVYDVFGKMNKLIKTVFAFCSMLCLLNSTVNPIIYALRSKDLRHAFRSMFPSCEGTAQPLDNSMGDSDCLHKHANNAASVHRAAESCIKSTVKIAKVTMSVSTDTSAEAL
Procedure: The cAMP BRET experiments were performed as previously described. Briefly, hCB1R HEK293 cells were transfected with 5 µg/10 cm dish of the CAMYEL biosensor using polyethylenimine. After 24 h, the cells were plated into white 96-well plates (PerkinElmer) at a density of 60,000 cells/well.
Cyclic AMP accumulation was measured using a DiscoverX HitHunter® cAMP Assay for Small Molecules (DiscoverX, Fremont, CA). hCB1R CHO cells were seeded at a density of 40,000 cells/well in 96-well white plates and grown overnight at 37 °C, 5% CO2 in a humidified incubator. […] Vehicle concentration was 1% DMSO, 0.1% BSA. Following agonist incubation, 15 µl of cAMP antibody reagent and 60 µl of working cAMP detection solution (containing 19 parts cAMP lysis buffer, 5 parts Substrate Reagent 1, 1 part Substrate Reagent 2 and 25 parts of cAMP Solution D) were added to all wells. Assay plates were incubated in the dark for 1 hr at room temperature, followed by addition of 60 µl cAMP solution A to all wells and incubation for 3 hr at room temperature in the dark. Plates were read using a GloMax Discover plate-reader (Promega, Madison, WI).

[7] = tested on: DATKO mice; test: Open-field test in DATKO mice; settings: 10 mg/kg i.p., 30 min before test
[8] = tested on: 44 different receptors, ion channels and enzymes; settings: 1 µM
Procedure: as §1, §2

[9] = in vitro; format: in vitro ADME, human; settings: pH 7.4
Procedure: as §3, §4

With CCc1c(-c2nnc(Nc3ccccc3)o2)[nH]c2ccc(Cl)cc12 [ABM300, 5-(5-chloro-3-ethyl-1H-indol-2-yl)-N-phenyl-1,3,4-oxadiazol-2-amine] the “binding to 5HT1A” value [1] was “did not display any significant binding”, the “binding to Dopamine D2” value [2] was “did not display any significant binding” and the half-life at 3 µM ([3]; microsomes, rat liver microsomal preparations) was 110 min. The microsomal CLint at 3 µM ([3]; rat liver microsomes) was 12.6 ± 2 µL/min/mg, the “avoidance behavior in CAR” value [4] was “no effect” and the catalepsy [5] was “did not induce catalepsy”. For the same compound, the “changes in body temperature” value [5] was “did not induce catalepsy, or changes in body temperature”, the IC50 [6] was 379 nM and 355 nM and 380 nM and the “dysregulated hyperactivity (total distance traveled)” value [7] was “normalized”. For the same compound, the stereotypic movements [7] was “normalized”, the vertical exploration [7] was “normalized” and the “binding to SafetyScreen44 targets” value [8] was “did not display any significant binding”. It also gave a half-life at 3 µM ([9]; microsomes, human liver microsomal preparations) of 109 min and a microsomal CLint at 3 µM ([9]; human liver microsomes) of 12.7 ± 3.4 µL/min/mg.
